{"source": "patent US20230276831A1", "about": "“Food/Beverage Article” (Kikkoman Corporation, priority 2020, published 2023)", "key": {"[1]": {"system": "Lactobacillus acidipiscis NBRC 102163", "assay": "Antimicrobial action of licoricidin in liquid seasoning (1), lactic acid bacteria C", "format": "cell-based", "parameters": "key: A: The bacterial count decreases to less than 10% of the bacterial count of the control group.; B: The bacterial count decreases to 10% or more and less than 50% of the bacterial count of the control group.; C: The bacterial count decreases to 50% or more and less than 100% of the bacterial count of control group.; D: The bacterial count is the same as the bacterial count of the control group", "description": "Commercially available whole soybean soy sauce (produced by Kikkoman Corporation) was electrodialyzed and then concentrated under reduced pressure to obtain soy sauce at a salt concentration of 0% (w/v) and an alcohol concentration of 0% (v/v). Then, salt and/or alcohol was added to the above-mentioned obtained soy sauce, and the mixture was heat-treated to produce soy sauces at salt concentrations and alcohol concentrations shown in the following Table 5. The pHs of the soy sauces were 4.9 to 5.0.\nSpecifically, components contained in dried bonito was extracted with alcohol and water; sugar, salt, and seasonings were blended with the obtained extract; and the resulting mixture was heated to produce bonito stock. The salt concentration of the obtained bonito stock was 0.2% (w/v), the alcohol concentration was 0.15% (v/v), and the pH was 6.1.\nSpecifically, Koikuchi soy sauce (produced by Kikkoman Corporation), granulated sugar, potato starch, and water were blended in amounts shown in following Table 7, and the resulting mixture was heated to produce sauce. The salt concentration of the obtained sauce was 5.3% (w/v), the alcohol concentration was 0.8% (v/v), and the pH was 5.0.\nSpecifically, the components contained in dried bonito was extracted with water; Koikuchi soy sauce (produced by Kikkoman Corporation), sugar, and salt were blended with the obtained extract; and the resulting mixture was heated to produce Japanese seasoned soup stock. The salt concentration of the obtained Japanese seasoned soup stock was 3% (w/v), the alcohol concentration was 0.4% (v/v), and the pH was 5.5.\nLicoricidin (produced by ChemFaces) was added to each of the liquid seasonings produced in the above-mentioned (1) to concentrations of 1 ppm, 5 ppm, 10 ppm, 25 ppm, and 50 ppm. Lactic acid bacteria described in the following Table 9 were then added to 10^6 to 10^7 cells/mL and cultured at 30° C. for 7 days. After the culture, the number of lactic acid bacteria was measured using the GAM agar medium “Nissui”. Liquid seasoning to which licoricidin was not added was used as a control group, and the antimicrobial activity was evaluated in comparison with the number of lactic acid bacteria in the control group. The evaluation was performed using the criterion shown below.\n• A: The bacterial count decreases to less than 10% of the bacterial count of the control group. • B: The bacterial count decreases to 10% or more and less than 50% of the bacterial count of the control group. • C: The bacterial count decreases to 50% or more and less than 100% of the bacterial count of control group. • D: The bacterial count is the same as the bacterial count of the control group."}, "[2]": {"system": "Lactobacillus rennini (DSM 20253)", "assay": "Antimicrobial action of oxygen-containing heterocyclic compounds in soy sauce (Test Example 6)", "format": "cell-based", "conditions": "Loigolactobacillus rennini, DSM20253, 168 h, salt 4% (w/v), alcohol 5% (v/v)", "description": "Commercially available whole soybean soy sauce (produced by Kikkoman Corporation) was electrodialyzed and then concentrated under reduced pressure to produce soy sauce at a salt concentration of 0% (w/v) and an alcohol concentration of 0% (v/v). Then, salt and/or alcohol was added to the above-mentioned obtained soy sauce, and the mixture was then heat-treated to produce soy sauce at a salt concentration of 4% (w/v) and an alcohol concentration of 5% (v/v).\nThe test substance described in Table 20 was added to the above-mentioned produced soy sauce to concentrations of 1 to 100 ppm. Lactic acid bacteria (Lactobacillus rennini (DSM 20253)) were then added to 10^6 to 10^7 cells/mL and cultured at 30° C. for 7 days. After the culture, the number of lactic acid bacteria was measured using the GAM agar medium “Nissui”. Soy sauce to which licoricidin was not added was used as a control group, and the antimicrobial activity was evaluated in comparison with the number of lactic acid bacteria in the control group. The evaluation was performed using the criterion shown below.\n• A: The bacterial count decreases to less than 10% of the bacterial count of the control group. • B: The bacterial count decreases to 10% or more and less than 50% of the bacterial count of control group. • C: The bacterial count decreases to 50% or more and less than 100% of the bacterial count of the control group. • D: The bacterial count is the same as the bacterial count of the control group. • -: Not evaluated"}}}
{"smiles": "COc1c(CC=C(C)C)c(O)cc2c1C[C@H](c1ccc(O)c(CC=C(C)C)c1O)CO2", "note": "[Licoricidin, 4-[(R)-7-hydroxy-5-methoxy-6-(3-methyl-2-butenyl)chroman-3-yl]-2-(3-methyl-2-butenyl)-1,3-benzenediol]", "values": [{"measurement": "Antimicrobial activity", "setting": "[1]; Bonito stock (salt 0.2% (w/v), alcohol 0.15% (v/v), pH 6.1), licoricidin 1 ppm", "value": "C (The bacterial count decreases to 50% or more and less than 100% of the bacterial count of control group.)"}, {"measurement": "Antimicrobial activity", "setting": "[1]; Bonito stock (salt 0.2% (w/v), alcohol 0.15% (v/v), pH 6.1), licoricidin 5 ppm", "value": "A (The bacterial count decreases to less than 10% of the bacterial count of the control group.)"}, {"measurement": "Antimicrobial activity", "setting": "[1]; Bonito stock (salt 0.2% (w/v), alcohol 0.15% (v/v), pH 6.1), licoricidin 10 ppm", "value": "A (The bacterial count decreases to less than 10% of the bacterial count of the control group.)"}, {"measurement": "Antimicrobial activity", "setting": "[1]; Bonito stock (salt 0.2% (w/v), alcohol 0.15% (v/v), pH 6.1), licoricidin 25 ppm", "value": "A (The bacterial count decreases to less than 10% of the bacterial count of the control group.)"}, {"measurement": "Antimicrobial activity", "setting": "[1]; Bonito stock (salt 0.2% (w/v), alcohol 0.15% (v/v), pH 6.1), licoricidin 50 ppm", "value": "A (The bacterial count decreases to less than 10% of the bacterial count of the control group.)"}, {"measurement": "Antimicrobial activity", "setting": "[1]; Japanese seasoned soup stock (salt 3% (w/v), alcohol 0.4% (v/v), pH 5.5), licoricidin 1 ppm", "value": "D"}, {"measurement": "Antimicrobial activity", "setting": "[1]; Japanese seasoned soup stock (salt 3% (w/v), alcohol 0.4% (v/v), pH 5.5), licoricidin 5 ppm", "value": "A (The bacterial count decreases to less than 10% of the bacterial count of the control group.)"}, {"measurement": "Antimicrobial activity", "setting": "[1]; Japanese seasoned soup stock (salt 3% (w/v), alcohol 0.4% (v/v), pH 5.5), licoricidin 10 ppm", "value": "A (The bacterial count decreases to less than 10% of the bacterial count of the control group.)"}, {"measurement": "Antimicrobial activity", "setting": "[1]; Japanese seasoned soup stock (salt 3% (w/v), alcohol 0.4% (v/v), pH 5.5), licoricidin 25 ppm", "value": "A (The bacterial count decreases to less than 10% of the bacterial count of the control group.)"}, {"measurement": "Antimicrobial activity", "setting": "[1]; Japanese seasoned soup stock (salt 3% (w/v), alcohol 0.4% (v/v), pH 5.5), licoricidin 50 ppm", "value": "A (The bacterial count decreases to less than 10% of the bacterial count of the control group.)"}, {"measurement": "Antimicrobial activity", "setting": "[1]; Sauce (salt 5.3% (w/v), alcohol 0.8% (v/v), pH 5.0), licoricidin 1 ppm", "value": "B (The bacterial count decreases to 10% or more and less than 50% of the bacterial count of the control group.)"}, {"measurement": "Antimicrobial activity", "setting": "[1]; Sauce (salt 5.3% (w/v), alcohol 0.8% (v/v), pH 5.0), licoricidin 5 ppm", "value": "B (The bacterial count decreases to 10% or more and less than 50% of the bacterial count of the control group.)"}, {"measurement": "Antimicrobial activity", "setting": "[1]; Sauce (salt 5.3% (w/v), alcohol 0.8% (v/v), pH 5.0), licoricidin 10 ppm", "value": "A (The bacterial count decreases to less than 10% of the bacterial count of the control group.)"}, {"measurement": "Antimicrobial activity", "setting": "[1]; Sauce (salt 5.3% (w/v), alcohol 0.8% (v/v), pH 5.0), licoricidin 25 ppm", "value": "A (The bacterial count decreases to less than 10% of the bacterial count of the control group.)"}, {"measurement": "Antimicrobial activity", "setting": "[1]; Sauce (salt 5.3% (w/v), alcohol 0.8% (v/v), pH 5.0), licoricidin 50 ppm", "value": "A (The bacterial count decreases to less than 10% of the bacterial count of the control group.)"}, {"measurement": "Antimicrobial activity", "setting": "[1]; Soy sauce, salt 0% (w/v), alcohol 0% (v/v), licoricidin 1 ppm", "value": "C (The bacterial count decreases to 50% or more and less than 100% of the bacterial count of control group.)"}, {"measurement": "Antimicrobial activity", "setting": "[1]; Soy sauce, salt 0% (w/v), alcohol 0% (v/v), licoricidin 5 ppm", "value": "C (The bacterial count decreases to 50% or more and less than 100% of the bacterial count of control group.)"}, {"measurement": "Antimicrobial activity", "setting": "[1]; Soy sauce, salt 0% (w/v), alcohol 0% (v/v), licoricidin 10 ppm", "value": "B (The bacterial count decreases to 10% or more and less than 50% of the bacterial count of the control group.)"}, {"measurement": "Antimicrobial activity", "setting": "[1]; Soy sauce, salt 0% (w/v), alcohol 0% (v/v), licoricidin 25 ppm", "value": "A (The bacterial count decreases to less than 10% of the bacterial count of the control group.)"}, {"measurement": "Antimicrobial activity", "setting": "[1]; Soy sauce, salt 0% (w/v), alcohol 0% (v/v), licoricidin 50 ppm", "value": "A (The bacterial count decreases to less than 10% of the bacterial count of the control group.)"}, {"measurement": "Antimicrobial activity", "setting": "[1]; Soy sauce, salt 4% (w/v), alcohol 0% (v/v), licoricidin 1 ppm", "value": "C (The bacterial count decreases to 50% or more and less than 100% of the bacterial count of control group.)"}, {"measurement": "Antimicrobial activity", "setting": "[1]; Soy sauce, salt 4% (w/v), alcohol 0% (v/v), licoricidin 5 ppm", "value": "A (The bacterial count decreases to less than 10% of the bacterial count of the control group.)"}, {"measurement": "Antimicrobial activity", "setting": "[1]; Soy sauce, salt 4% (w/v), alcohol 0% (v/v), licoricidin 10 ppm", "value": "A (The bacterial count decreases to less than 10% of the bacterial count of the control group.)"}, {"measurement": "Antimicrobial activity", "setting": "[1]; Soy sauce, salt 4% (w/v), alcohol 0% (v/v), licoricidin 25 ppm", "value": "A (The bacterial count decreases to less than 10% of the bacterial count of the control group.)"}, {"measurement": "Antimicrobial activity", "setting": "[1]; Soy sauce, salt 4% (w/v), alcohol 0% (v/v), licoricidin 50 ppm", "value": "A (The bacterial count decreases to less than 10% of the bacterial count of the control group.)"}, {"measurement": "Antimicrobial activity", "setting": "[1]; Soy sauce, salt 8% (w/v), alcohol 0% (v/v), licoricidin 1 ppm", "value": "D"}, {"measurement": "Antimicrobial activity", "setting": "[1]; Soy sauce, salt 8% (w/v), alcohol 0% (v/v), licoricidin 5 ppm", "value": "A (The bacterial count decreases to less than 10% of the bacterial count of the control group.)"}, {"measurement": "Antimicrobial activity", "setting": "[1]; Soy sauce, salt 8% (w/v), alcohol 0% (v/v), licoricidin 10 ppm", "value": "A (The bacterial count decreases to less than 10% of the bacterial count of the control group.)"}, {"measurement": "Antimicrobial activity", "setting": "[1]; Soy sauce, salt 8% (w/v), alcohol 0% (v/v), licoricidin 25 ppm", "value": "A (The bacterial count decreases to less than 10% of the bacterial count of the control group.)"}, {"measurement": "Antimicrobial activity", "setting": "[1]; Soy sauce, salt 8% (w/v), alcohol 0% (v/v), licoricidin 50 ppm", "value": "A (The bacterial count decreases to less than 10% of the bacterial count of the control group.)"}, {"measurement": "Antimicrobial activity", "setting": "[1]; Soy sauce, salt 12% (w/v), alcohol 0% (v/v), licoricidin 1 ppm", "value": "B (The bacterial count decreases to 10% or more and less than 50% of the bacterial count of the control group.)"}, {"measurement": "Antimicrobial activity", "setting": "[1]; Soy sauce, salt 12% (w/v), alcohol 0% (v/v), licoricidin 5 ppm", "value": "A (The bacterial count decreases to less than 10% of the bacterial count of the control group.)"}, {"measurement": "Antimicrobial activity", "setting": "[1]; Soy sauce, salt 12% (w/v), alcohol 0% (v/v), licoricidin 10 ppm", "value": "A (The bacterial count decreases to less than 10% of the bacterial count of the control group.)"}, {"measurement": "Antimicrobial activity", "setting": "[1]; Soy sauce, salt 12% (w/v), alcohol 0% (v/v), licoricidin 25 ppm", "value": "A (The bacterial count decreases to less than 10% of the bacterial count of the control group.)"}, {"measurement": "Antimicrobial activity", "setting": "[1]; Soy sauce, salt 12% (w/v), alcohol 0% (v/v), licoricidin 50 ppm", "value": "A (The bacterial count decreases to less than 10% of the bacterial count of the control group.)"}, {"measurement": "activity at 5 ppm", "setting": "[2]; test substance 5 ppm", "value": "< 10", "unit": "%"}, {"measurement": "activity at 10 ppm", "setting": "[2]; test substance 10 ppm", "value": "< 10", "unit": "%"}, {"measurement": "activity at 25 ppm", "setting": "[2]; test substance 25 ppm", "value": "< 10", "unit": "%"}, {"measurement": "activity at 50 ppm", "setting": "[2]; test substance 50 ppm", "value": "< 10", "unit": "%"}]}
